The values that follow come from US12624018B1, “Inhibitors of RIPK2 and medical uses thereof” (Odyssey Therapeutics, Inc., priority 2022, dated 2026).

Some results are limits rather than exact numbers.

Usually IC50 stands for the concentration needed to halve the response being measured.

T1 sequence (O43353 1-299 limits assumed): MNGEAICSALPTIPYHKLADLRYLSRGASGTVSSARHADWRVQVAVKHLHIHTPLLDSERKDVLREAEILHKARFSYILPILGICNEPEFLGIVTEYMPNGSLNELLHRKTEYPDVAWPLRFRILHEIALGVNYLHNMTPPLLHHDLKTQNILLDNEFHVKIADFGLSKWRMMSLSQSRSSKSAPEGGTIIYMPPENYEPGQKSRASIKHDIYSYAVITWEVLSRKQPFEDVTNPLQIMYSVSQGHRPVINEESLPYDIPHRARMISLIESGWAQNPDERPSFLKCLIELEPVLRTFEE

This assay addresses T1, RIPK2 enzyme (Homo sapiens, UniProt O43353).
T1 construct: purchased Carna 09-128
Nature of the assay: RIPK2 inhibition (ADP-Glo Kinase Assay). It is filed as biochemical. Conditions: RIPK2 5 nM, ATP 150 μM, MBP substrate, read-out: RIPK2 IC50. Put shortly: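 Swine MBP substrate; compound and 5 nM RIPK2 first mixed for 30 min at room temperature; buffer pH 7.5 HEPES 50 mM with 10 mM MgCl2, 2 mM DTT, 1 mM EGTA, Brij-35, BSA.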
Background: In ADP-Glo the light output rises with the ADP produced.
For `Cc1cc(CC(=O)Nc2cnn(C(C)(C)C)c2)c(F)cc1Oc1ccnc2ccc(CN3C[C@H]4C[C@@H]3CO4)cc12` [Compound 423, 2-(4-((6-(((1R,4R)-2-oxa-5-azabicyclo[2.2.1]heptan-5-yl)methyl)quinolin-4-yl)oxy)-2-fluoro-5-methylphenyl)-N-(1-(tert-butyl)-1H-pyrazol-4-yl)acetamide], the concentration for half-maximal inhibition (IC50) is less than 2.5 nM.

On to `Cc1cc(CC(=O)Nc2cnn(C(C)(C)C)c2)c(F)cc1Oc1ccnc2ccc(-c3ncccn3)cc12` [Compound 424, N-(1-(tert-butyl)-1H-pyrazol-4-yl)-2-(2-fluoro-5-methyl-4-((6-(pyrimidin-2-yl)quinolin-4-yl)oxy)phenyl)acetamide], for which the 50% inhibitory concentration (IC50) is less than 2.5 nM. As for `Cc1cc(CC(=O)Nc2cnn(C(C)(C)C)c2)c(F)cc1Oc1ccnc2ccc(-c3cnccn3)cc12` [Compound 425, N-(1-(tert-butyl)-1H-pyrazol-4-yl)-2-(2-fluoro-5-methyl-4-((6-(pyrazin-2-yl)quinolin-4-yl)oxy)phenyl)acetamide], the 50% inhibitory concentration (IC50) is less than 2.5 nM.

As to `Cc1cc(CC(=O)Nc2cnn(C(C)(C)C)c2)c(F)cc1Oc1ccnc2ccc(-c3cccnn3)cc12` [Compound 426, N-(1-(tert-butyl)-1H-pyrazol-4-yl)-2-(2-fluoro-5-methyl-4-((6-(pyridazin-3-yl)quinolin-4-yl)oxy)phenyl)acetamide], the half-inhibitory concentration (IC50) was less than 2.5 nM. The result for `Cc1cc(CC(=O)Nc2cnn(C(C)(C)C)c2)c(F)cc1Oc1ccnc2ccc(-c3ncn(C)n3)cc12` [Compound 427, N-(1-(tert-butyl)-1H-pyrazol-4-yl)-2-(2-fluoro-5-methyl-4-((6-(1-methyl-1H-1,2,4-triazol-3-yl)quinolin-4-yl)oxy)phenyl)acetamide] reads less than 2.5 nM; that for `Cc1cc(CC(=O)Nc2cnn(C(C)(C)C)c2)c(F)cc1Oc1ccnc2ccc(-c3ncnn3C)cc12` [Compound 428, N-(1-(tert-butyl)-1H-pyrazol-4-yl)-2-(2-fluoro-5-methyl-4-((6-(1-methyl-1H-1,2,4-triazol-5-yl)quinolin-4-yl)oxy)phenyl)acetamide], less than 2.5 nM; that for `CCS(=O)(=O)c1ccc2nccc(Oc3cc(F)c(CC(=O)Nc4cnn(C(C)(C)C)c4)cc3Cl)c2c1` [Compound 430, N-(1-(tert-butyl)-1H-pyrazol-4-yl)-2-(5-chloro-4-((6-(ethylsulfonyl)quinolin-4-yl)oxy)-2-fluorophenyl)acetamide], less than 2.5 nM. Next, `Cc1cc(CC(=O)Nc2nnc(C(C)(C)C)o2)ccc1Oc1ccnc2ccc(S(C)(=O)=O)cc12` [Compound 431, N-(5-(tert-butyl)-1,3,4-oxadiazol-2-yl)-2-(3-methyl-4-((6-(methylsulfonyl)quinolin-4-yl)oxy)phenyl) acetamide]: less than 2.5 nM; `CC(C)(C)n1cc(NC(=O)Cc2ccc(Oc3ccnc4ccc(S(C)(=O)=O)cc34)c(C#N)c2)cn1` [Compound 432, N-(1-(tert-butyl)-1H-pyrazol-4-yl)-2-(3-cyano-4-((6-(methylsulfonyl)quinolin-4-yl)oxy)phenyl)acetamide]: 2.8 nM; `Cc1cc(CC(=O)Nc2cnn(C(C)(C)C)c2)c(F)cc1Oc1ccnc2ccc(C(C)(C)O)cc12` [Compound 433, N-(1-(tert-butyl)-1H-pyrazol-4-yl)-2-(2-fluoro-4-((6-(2-hydroxypropan-2-yl)quinolin-4-yl)oxy)-5-methylphenyl)acetamide]: less than 2.5 nM. As for `Cc1cc(CC(=O)Nc2cnn(C(C)(C)C)c2)c(F)cc1Oc1ncnc2ccc(C(N)=O)cc12` [Compound 434, 4-(4-(2-((1-(tert-butyl)-1H-pyrazol-4-yl)amino)-2-oxoethyl)-5-fluoro-2-methylphenoxy)quinazoline-6-carboxamide], the IC50 is 3 nM.

Turning to `CNC(=O)c1cc2c(Oc3cc(F)c(CC(=O)Nc4cnn(C(C)(C)C)c4)cc3C)ccnc2cc1F` [Compound 435, 4-(4-(2-((1-(tert-butyl)-1H-pyrazol-4-yl)amino)-2-oxoethyl)-5-fluoro-2-methylphenoxy)-7-fluoro-N-methylquinoline-6-carboxamide], the half-inhibitory concentration (IC50) was less than 2.5 nM.

In the case of `COc1cc2nccc(Oc3cc(F)c(CC(=O)Nc4cnn(C(C)(C)C)c4)cc3C)c2cc1C(N)=O` [Compound 436, 4-(4-(2-((1-(tert-butyl)-1H-pyrazol-4-yl)amino)-2-oxoethyl)-5-fluoro-2-methylphenoxy)-7-methoxyquinoline-6-carboxamide], the IC50 is less than 2.5 nM. Next, `CNC(=O)c1cc2c(Oc3cc(F)c(CC(=O)Nc4cnn(C(C)(C)C)c4)cc3C)ccnc2cc1OC` [Compound 437, 4-(4-(2-((1-(tert-butyl)-1H-pyrazol-4-yl)amino)-2-oxoethyl)-5-fluoro-2-methylphenoxy)-7-methoxy-N-methylquinoline-6-carboxamide]: less than 2.5 nM; `Cc1cc(CC(=O)Nc2cnn(C(C)(C)C)c2)c(F)cc1Oc1ncnc2cc(F)c(C(N)=O)cc12` [Compound 438, 4-(4-(2-((1-(tert-butyl)-1H-pyrazol-4-yl)amino)-2-oxoethyl)-5-fluoro-2-methylphenoxy)-7-fluoroquinazoline-6-carboxamide]: 3.5 nM; `COc1cc2ncnc(Oc3cc(F)c(CC(=O)Nc4cnn(C(C)(C)C)c4)cc3C)c2cc1C(N)=O` [Compound 439, 4-(4-(2-((1-(tert-butyl)-1H-pyrazol-4-yl)amino)-2-oxoethyl)-5-fluoro-2-methylphenoxy)-7-methoxyquinazoline-6-carboxamide]: less than 2.5 nM.

Regarding `CNC(=O)c1cc2c(Oc3cc(F)c(CC(=O)Nc4cnn(C(C)(C)C)c4)cc3C)ncnc2cc1OC` [Compound 440, 4-(4-(2-((1-(tert-butyl)-1H-pyrazol-4-yl)amino)-2-oxoethyl)-5-fluoro-2-methylphenoxy)-7-methoxy-N-methylquinazoline-6-carboxamide], the IC50 is less than 2.5 nM. The result for `Cc1c(Oc2ccnc3ccc(C(O)CO)cc23)ccc(CC(=O)Nc2cnn(C(C)(C)C)c2)c1F` (stereo not shown) [Compound 444, N-(1-(tert-butyl)-1H-pyrazol-4-yl)-2-(4-((6-(1,2-dihydroxyethyl)quinolin-4-yl)oxy)-2-fluoro-3-methylphenyl)acetamide] reads less than 2.5 nM; that for `Cc1cc(CC(=O)Nc2cnn(C(C)(C)C)c2)cc(C)c1Oc1ccnc2ccc(S(C)(=O)=O)cc12` [Compound 445, N-(1-(tert-butyl)-1H-pyrazol-4-yl)-2-(3,5-dimethyl-4-((6-(methylsulfonyl)quinolin-4-yl)oxy)phenyl)acetamide], less than 2.5 nM; that for `Cc1cc(Oc2ccnc3ccc(S(C)(=O)=O)cc23)c(C)cc1CC(=O)Nc1cnn(C(C)(C)C)c1` [Compound 446, N-(1-(tert-butyl)-1H-pyrazol-4-yl)-2-(2,5-dimethyl-4-((6-(methylsulfonyl)quinolin-4-yl)oxy)phenyl)acetamide], 21.4 nM. Next, `Cc1cc(CC(=O)Nc2cnn(C(C)(C)C)c2)cc(F)c1Oc1ncnc2ccc(C(N)=O)cc12` [Compound 447, 4-(4-(2-((1-(tert-butyl)-1H-pyrazol-4-yl)amino)-2-oxoethyl)-2-fluoro-6-methylphenoxy)quinazoline-6-carboxamide]: less than 2.5 nM. Regarding `COC1CN(C(=O)c2ccc3nccc(Oc4cc(F)c(CC(=O)Nc5cnn(C(C)(C)C)c5)cc4C)c3c2)C1` [Compound 448, N-(1-(tert-butyl)-1H-pyrazol-4-yl)-2-(2-fluoro-4-((6-(3-methoxyazetidine-1-carbonyl)quinolin-4-yl)oxy)-5-methylphenyl)acetamide], the half-maximal inhibitory concentration (IC50) was less than 2.5 nM. Regarding `Cc1cc(CC(=O)Nc2cnn(C(C)(C)C)c2)c(F)cc1Oc1ccnc2ccc(C(=O)N3CCC(N)C3)cc12` (stereo not shown) [Compound 449, 2-(4-((6-(3-aminopyrrolidine-1-carbonyl)quinolin-4-yl)oxy)-2-fluoro-5-methylphenyl)-N-(1-(tert-butyl)-1H-pyrazol-4-yl)acetamide], the IC50 is less than 2.5 nM. In the case of `Cc1cc(CC(=O)Nc2cnn(C(C)(C)C)c2)c(F)cc1Oc1ccnc2ccc(C(=O)N3[C@H](C)CCC[C@@H]3C)cc12` [Compound 450, N-(1-(tert-butyl)-1H-pyrazol-4-yl)-2-(4-((6-((2S,6R)-2,6-dimethylpiperidine-1-carbonyl)quinolin-4-yl)oxy)-2-fluoro-5-methylphenyl)acetamide], the half-maximal inhibitory concentration (IC50) is less than 2.5 nM. The result for `Cc1cc(CC(=O)Nc2cnn(C(C)(C)C)c2)c(F)cc1Oc1ccnc2ccc(C(=O)N3[C@H](C)COC[C@@H]3C)cc12` [Compound 451, N-(1-(tert-butyl)-1H-pyrazol-4-yl)-2-(4-((6-((3S,5R)-3,5-dimethylmorpholine-4-carbonyl)quinolin-4-yl)oxy)-2-fluoro-5-methylphenyl)acetamide] reads less than 2.5 nM; that for `Cc1cc(CC(=O)Nc2cnn(C(C)(C)C)c2)c(F)cc1Oc1ccnc2ccc(C(=O)N3C[C@H]4C[C@@H]3CO4)cc12` [Compound 452, 2-(4-((6-((1R,4R)-2-oxa-5-azabicyclo[2.2.1]heptane-5-carbonyl)quinolin-4-yl)oxy)-2-fluoro-5-methylphenyl)-N-(1-(tert-butyl)-1H-pyrazol-4-yl)acetamide], less than 2.5 nM. The result for `Cc1cc(CC(=O)Nc2cnn(C(C)(C)C)c2)c(F)cc1Oc1ccnc2ccc(C(=O)N3C[C@H]4C[C@@H]3CN4)cc12` [Compound 453, 2-(4-((6-((1R,4R)-2,5-diazabicyclo[2.2.1]heptane-2-carbonyl)quinolin-4-yl)oxy)-2-fluoro-5-methylphenyl)-N-(1-(tert-butyl)-1H-pyrazol-4-yl)acetamide] reads less than 2.5 nM; that for `Cc1cc(CC(=O)Nc2cnn(C(C)(C)C)c2)c(F)cc1Oc1ccnc2ccc(C(=O)N3C[C@@H]4C[C@H]3CO4)cc12` [Compound 454, 2-(4-((6-((1S,4S)-2-oxa-5-azabicyclo[2.2.1]heptane-5-carbonyl)quinolin-4-yl)oxy)-2-fluoro-5-methylphenyl)-N-(1-(tert-butyl)-1H-pyrazol-4-yl)acetamide], less than 2.5 nM.
